Test results reported in patent US9539231B2, “Method for treating triple-negative breast cancer using AMPI-109” (The Regents of the University of Colorado, a body corporate, priority 2014, dated 2017).

Columns and labels:
[1] = test system: BT-20 cells; assay: Block of AMPI-109-mediated growth inhibition by RXR antagonist; assay type: cell-based, human; conditions: doses which blocked VDR-mediated gene expression
From the text: VDR activates gene expression as a heterodimer with the retinoid X receptor (RXR). The inventors thus also tested whether pharmacologic inhibition of the VDR axis with HX531, an RXR antagonist, would block AMPI-109-mediated growth inhibition of BT-20 cells.

[2] = test system: VDR-mediated gene expression; assay: VDR-mediated gene expression; assay type: cell-based
[3] = test system: BT-20 cells; assay: Growth assay in BT-20 cells with VDR shRNA knock down, 72 hours; assay type: cell-based, human; conditions: p<0.001
From the text: The inventors used shRNAs directed against VDR in BT-20 cells and examined the response after treatment with AMPI-109. […] The non-silencing control is designated as pLKO.

[4] = test system: MCF-10A; assay: Cell viability by crystal violet staining, 7 days; assay type: cell-based, human; conditions: MCF-10A non-malignant, 100 nM
Procedure: (§1) In order to determine the effects of AMPI-109 on cell viability as one possible explanation of the reduction in tumor size, the inventors plated various breast cancer cell lines in 6-well dishes and treated with either ethanol control (CU), vitamin D (1,25D) or AMPI-109. 1,25D and AMPI-109 were administered at 100 nM. The plates were incubated for 7 days and cell viability was assessed by crystal violet staining.

[5] = test system: MCF7; assay: Cell viability by crystal violet staining, 7 days; assay type: cell-based, human; conditions: MCF7 luminal A, 100 nM
Procedure: as §1

[6] = test system: MDA-231; assay: Cell viability by crystal violet staining, 7 days; assay type: cell-based, human; conditions: 100 nM
Procedure: as §1

[7] = test system: BT-20; assay: Cell viability by crystal violet staining, 7 days; assay type: cell-based, human; conditions: 100 nM
Procedure: as §1

[8] = test system: MDA-453; assay: MTS growth assay, 3 days treatment; assay type: cell-based, human; conditions: MDA-453, HER2, 100 nM
Procedure: (§2) Breast cancer is a very heterogeneous disease consisting of multiple molecular subtypes. In order to examine the antitumorigenic properties of AMPI-109 in human breast cancer cells of various subtypes, a cohort of breast cancer cell lines were treated with AMPI-109 at its IC50 (the dose where 50% of the cells show the desired effects), equimolar 1,25D or ethanol control and cellular growth was quantified. In particular, the cell lines were treated at the approximate IC50 (100 nM) of AMPI-109, 1,25D (100 nM) or ethanol control for 3 days. MTS assays were then performed. The experiment was repeated three times with 6 replicates per experiment.
(§3) The percentage in Table 1 represents growth compared to control treatment. The p values represent significance of difference between 1,25D inhibition and AMPI-109 inhibition of growth. It can be concluded from the data that AMPI-109 inhibits the growth of multiple TN breast cancer subtypes and this inhibition appeared to be almost entirely specific for TN breast cancer cell lines.

[9] = test system: MCF10A; assay: MTS growth assay, 3 days treatment; assay type: cell-based, human; conditions: Nonmalignant, 100 nM
Procedure: as §2, §3

[10] = test system: MCF7; assay: MTS growth assay, 3 days treatment; assay type: cell-based, human; conditions: MCF7, Luminal A, 100 nM
Procedure: as §2, §3

[11] = test system: SUM149; assay: MTS growth assay, 3 days treatment; assay type: cell-based, human; conditions: SUM149, TN (BL2), 100 nM
Procedure: as §2, §3

[12] = test system: T47D; assay: MTS growth assay, 3 days treatment; assay type: cell-based, human; conditions: Luminal A, 100 nM
Procedure: as §2, §3

[13] = test system: SKBR3; assay: MTS growth assay, 3 days treatment; assay type: cell-based, human; conditions: SKBR3, HER2, 100 nM
Procedure: as §2, §3

[14] = test system: MDA-231; assay: MTS growth assay, 3 days treatment; assay type: cell-based, human; conditions: MDA-231, TN (MSL), 100 nM
Procedure: as §2, §3

[15] = test system: BT-20; assay: MTS growth assay, 3 days treatment; assay type: cell-based, human; conditions: BT-20, TN (Unclass.), 100 nM
Procedure: as §2, §3

[16] = test system: MDA-468; assay: MTS growth assay, 3 days treatment; assay type: cell-based, human; conditions: MDA-468, TN (BL1), 100 nM
Procedure: as §2, §3

[17] = test system: BT-549; assay: MTS growth assay, 3 days treatment; assay type: cell-based, human; conditions: BT-549, TN (M), 100 nM
Procedure: as §2, §3

[18] = test system: HCC70; assay: MTS growth assay, 3 days treatment; assay type: cell-based, human; conditions: HCC70, TN (BL2), 100 nM
Procedure: as §2, §3

[19] = test system: BT-474; assay: MTS growth assay, 3 days treatment; assay type: cell-based, human; conditions: BT-474, Luminal B, 100 nM
Procedure: as §2, §3

[20] = test system: human breast cancer cells; assay: IC50 of AMPI-109 for cellular growth (MTS); assay type: cell-based; conditions: breast cancer cell lines, read-out: approximate IC50
Procedure: as §2

[21] = test system: MDA-231; assay: Apoptosis ELISA assay, 24 hours; assay type: cell-based, human; conditions: 100 nM
Procedure: (§4) The inventors also examined the ability of AMPI-109 to induce apoptosis in TN breast cancer cells by performing ELISA assays. Various cell lines (MCF10A, MCF-7, BT-20 and MDA-231) were treated with ethanol control (C), paclitaxel (100 nM, (T)), 1,25D (100 nM), (D)), or AMPI-109 (100 nM), (A)) for 24 hours. ELISA assays were then performed. The p values in the figure were determined by T-test. […] Therefore, it can be concluded that AMPI-109 appears to specifically induce apoptosis in TN breast cancer cells.

[22] = test system: BT-20; assay: Apoptosis ELISA assay, 24 hours; assay type: cell-based, human; conditions: 100 nM
Procedure: as §4

[23] = test system: MCF10A; assay: PARP cleavage by western blot, 24 hours; assay type: cell-based, human; conditions: 100 nM
Procedure: (§5) Cleavage of poly (ADP)-ribose polymerase (PARP), a hallmark of apoptosis, was used to further investigate the ability of AMPI-109 to induce apoptosis of TN breast cancer cells. FIG. 2C, wherein PARP cleavage was determined by western blot, summarizes the results of cleaved PARP after treating MCF10A, MCF-7, BT-20 and MDA-231 with ethanol control (C), paclitaxel (100 nM, (T)), 1,25D (100 nM), (D)), or AMPI-109 (100 nM), (A)) for 24 hours. […] Accordingly, the results as described in FIG. 2A, FIG. 2B, and FIG. 2C indicate the capability of AMPI-109 as an agent to induce apoptosis of TN breast cancer cells.

[24] = test system: MDA-231; assay: PARP cleavage by western blot, 24 hours; assay type: cell-based, human; conditions: 100 nM
Procedure: as §5

[25] = test system: BT-20; assay: PARP cleavage by western blot, 24 hours; assay type: cell-based, human; conditions: 100 nM
Procedure: as §5

[26] = test system: MCF-7; assay: PARP cleavage by western blot, 24 hours; assay type: cell-based, human; conditions: 100 nM
Procedure: as §5

[27] = test system: patient-derived triple negative breast cancer tumor xenograft; assay: Patient-derived TNBC tumor xenograft growth inhibition; assay type: in vivo, NOD-SCID mice; conditions: 1 ug/kg i.p. every other day for three weeks, vs vehicle
From the text: The inventors further examined the ability of AMPI-109 to inhibit the growth of a patient-derived triple negative breast cancer tumor xenograft. A tumor from a person diagnosed with stage 4 triple negative breast cancer was propagated by serial passage through NOD-SCID mice. The tumor was dissected into equal sizes and implanted into the left and right mammary fat pads of 12 NOD-SCID mice. Once the tumors reached 100 mm^3 in size the mice were randomized into vehicle- and AMPI-109-treated arms. A total of 19 tumors grew out (9 for vehicle, and 10 for AMPI-109 treated). Vehicle control or AMPI-109 (1 ug/kg body weight) was administered by i.p. injection every other day for three weeks. Upon completion of the study, the tumors were excised and volume and mass were determined. […] The results were shown in FIG. 1, where * indicates a p value of 0.018, which was determined by T-test.

[28] = test system: MCF-10A; assay: Apoptosis ELISA assay, 24 hours; assay type: cell-based, human; conditions: 100 nM
Procedure: as §4

[29] = test system: MCF-7; assay: Apoptosis ELISA assay, 24 hours; assay type: cell-based, human; conditions: 100 nM
Procedure: as §4

| SMILES | % Control (growth compared to control treatment) [8] [%] | % Control (growth compared to control treatment) [9] [%] | % Control (growth compared to control treatment) [10] [%] | % Control (growth compared to control treatment) [11] [%] | % Control (growth compared to control treatment) [12] [%] | % Control (growth compared to control treatment) [13] [%] | % Control (growth compared to control treatment) [14] [%] | % Control (growth compared to control treatment) [15] [%] | % Control (growth compared to control treatment) [16] [%] | % Control (growth compared to control treatment) [17] [%] | % Control (growth compared to control treatment) [18] [%] | % Control (growth compared to control treatment) [19] [%] | induction of apoptosis (ELISA) [21] | induction of apoptosis (ELISA) [22] | other results |
| --- | --- | --- | --- | --- | --- | --- | --- | --- | --- | --- | --- | --- | --- | --- | --- |
| CN1c2ccc([N+](=O)[O-])cc2N=C(c2ccc(C(=O)O)cc2)c2cc3c(cc21)C(C)(C)CCC3(C)C [HX531] | – | – | – | – | – | – | – | – | – | – | – | – | – | – | effect on AMPI-109-mediated growth inhibition [1]: did not inhibit the antiproliferative effects of AMPI-109; effect on VDR-mediated gene expression [2]: blocked VDR-mediated gene expression |
| C=C1/C(=C\C=C2/CCC[C@]3(C)[C@@H]([C@H](C)CCCC(C)(C)O)CC[C@@H]23)C[C@@H](OC(=O)CBr)C[C@@H]1O [AMPI-109, 1α,25-Dihydroxyvitamin D3-3β-bromoacetate] | 86 | 99 | 93 | 39 | 94 | 99 | 44 | 29 | 39 | 69 | 49 | 66 | strong induction of apoptosis | strong induction of apoptosis | growth inhibition ([3]; BT-20 cells with VDR knocked down (VDR3, VDR8 shRNAs)): equally effective at inhibiting the growth; growth inhibition ([3]; BT-20 control cells (pLKO non-silencing)): equally effective at inhibiting the growth; cell viability (crystal violet staining) [4]: no effect on cell viability; cell viability (crystal violet staining) [5]: no effect on cell viability; cell viability (crystal violet staining) [6]: significant reduction in cell viability; cell viability (crystal violet staining) [7]: significant reduction in cell viability; IC50 [20]: ~100 nM; PARP cleavage (western blot) [23]: only in BT-20 and MDA-231 cells; PARP cleavage (western blot) [24]: promoted PARP cleavage; PARP cleavage (western blot) [25]: promoted PARP cleavage; PARP cleavage (western blot) [26]: only in BT-20 and MDA-231 cells; tumor mass [27]: significant reduction; tumor volume [27]: significant reduction; reduction of the size of the tumors ([27]; p 0.018): approximately 30% |
| C=C1/C(=C\C=C2/CCC[C@]3(C)[C@@H]([C@H](C)CCCC(C)(C)O)CC[C@@H]23)C[C@@H](O)C[C@@H]1O [1,25D, reference compound] | 94 | 102 | 95 | 92 | 98 | 100 | 96 | 82 | 86 | 94 | 83 | 87 | – | – | – |
| CC(=O)O[C@H]1C(=O)[C@@]2(C)[C@H]([C@H](OC(=O)c3ccccc3)[C@]3(O)C[C@H](OC(=O)[C@H](O)[C@@H](NC(=O)c4ccccc4)c4ccccc4)C(C)=C1C3(C)C)[C@]1(OC(C)=O)CO[C@@H]1C[C@@H]2O [paclitaxel, reference compound] | – | – | – | – | – | – | – | – | – | – | – | – | induced apoptosis in all cells tested | induced apoptosis in all cells tested | induction of apoptosis (ELISA) [28]: induced apoptosis in all cells tested; induction of apoptosis (ELISA) [29]: induced apoptosis in all cells tested |
